Results on 11 compounds are retold here after ChEMBL document CHEMBL4477261, “Design, synthesis and evaluation of the multidrug resistance-reversing activity of pyridine acid esters of podophyllotoxin in human leukemia cells” (Bioorg Med Chem Lett, 2016).

Counter-ions that a name gives are not always drawn. Activity calls are given as the source filed them. The rule behind the calls is not given here.

Series [1] relates to K562. As to the kind of experiment: Antiproliferative activity against human K562 cells after 72 hrs by CCK8 assay. Type of series: functional, cell-based. As to conditions: K562, 72 h.
For series [2], the system named is K562/Adr. As to the kind of experiment: Antiproliferative activity against human K562/ADR cells after 72 hrs by CCK8 assay. The class given is functional, cell-based.
Series [3] has as its system K562. As to the kind of experiment: Resistance factor, ratio of IC50 for human K562/ADR cells to IC50 for human K562 cells. The class given is functional.
The target of series [4] is T1, Mitogen-activated protein kinase; ERK1/ERK2 (Homo sapiens) (UniProt P27361+P28482). As to the kind of experiment: Activation of ERK1/2 signalling in human K562/ADR cells assessed as suppression of CyclinB1 protein expression at 0.05 uM after 48 hrs by Western blot analysis relative to control. The class given is cell-based.
T1 sequence (P27361 whole entry, looked up): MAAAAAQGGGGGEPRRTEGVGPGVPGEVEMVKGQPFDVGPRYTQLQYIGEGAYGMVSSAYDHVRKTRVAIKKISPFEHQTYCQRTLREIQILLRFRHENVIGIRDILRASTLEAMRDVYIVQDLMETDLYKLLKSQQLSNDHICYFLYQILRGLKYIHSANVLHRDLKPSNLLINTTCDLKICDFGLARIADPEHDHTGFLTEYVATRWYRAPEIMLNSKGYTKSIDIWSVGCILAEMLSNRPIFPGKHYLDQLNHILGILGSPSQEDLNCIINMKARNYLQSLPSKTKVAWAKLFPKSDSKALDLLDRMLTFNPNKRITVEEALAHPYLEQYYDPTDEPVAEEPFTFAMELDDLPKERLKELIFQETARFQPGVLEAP
T1 sequence (P28482 whole entry, looked up): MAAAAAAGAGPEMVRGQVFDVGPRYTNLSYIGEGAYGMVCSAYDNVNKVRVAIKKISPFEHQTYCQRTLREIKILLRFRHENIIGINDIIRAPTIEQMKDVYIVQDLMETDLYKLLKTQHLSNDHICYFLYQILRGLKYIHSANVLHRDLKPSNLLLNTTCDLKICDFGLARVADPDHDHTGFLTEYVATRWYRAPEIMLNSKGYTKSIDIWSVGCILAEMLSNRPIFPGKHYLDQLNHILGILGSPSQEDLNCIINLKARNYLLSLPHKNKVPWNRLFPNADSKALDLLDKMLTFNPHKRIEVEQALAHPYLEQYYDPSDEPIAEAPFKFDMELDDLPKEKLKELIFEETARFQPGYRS
In series [5] the test system is K562/Adr. As to the kind of experiment: Effect on total ERK1/2 protein expression level in human K562/ADR cells at 0.05 uM after 48 hrs by Western blot analysis relative to control. Type of series: ADME, cell-based.
In series [6] the test system is K562/Adr. As to the kind of experiment: Cell cycle arrest in human K562/ADR cells assessed as accumulation in S phase at 0.05 uM after 48 hrs by propidium iodide staining based flow cytometry. Type of series: functional. A general note: In flow cytometry, cells or beads pass a laser one at a time.
Series [7] deals with T1, Mitogen-activated protein kinase; ERK1/ERK2 (Homo sapiens). As to the kind of experiment: Activation of ERK1/2 signalling in human K562/ADR cells assessed as suppression of P-gp expression at 0.05 uM after 48 hrs by Western blot analysis relative to control. Type of series: cell-based. For orientation: In western blotting, separated proteins are transferred to a membrane and probed.

The test system of series [8] is K562/Adr. As to the kind of experiment: Induction of apoptosis in human K562/ADR cells assessed as chromatin condensation at 0.05 uM after 48 hrs by Hoechst 33342 staining based fluorescent microscopic analysis. Type of series: functional, cell-based.
For series [9], the system named is K562/Adr. As to the kind of experiment: Induction of apoptosis in human K562/ADR cells assessed as late apoptotic cells at 0.05 uM after 48 hrs by Annexin V-APC/7-AAD staining based flow cytometry (reference value: 3.89%). The class given is functional.
Series [10] concerns K562/Adr. As to the kind of experiment: Induction of apoptosis in human K562/ADR cells assessed as nuclear fragmentation at 0.05 uM after 48 hrs by Hoechst 33342 staining based fluorescent microscopic analysis. The class given is functional, cell-based.
Series [11] deals with T1, Mitogen-activated protein kinase; ERK1/ERK2 (Homo sapiens). As to the kind of experiment: Activation of ERK1/2 signalling in human K562/ADR cells assessed as increase in cleaved caspase-8 expression at 0.05 uM after 48 hrs by Western blot analysis relative to control. Type of series: cell-based.
The test system of series [12] is K562/Adr. As to the kind of experiment: Induction of apoptosis in human K562/ADR cells assessed as early apoptotic cells at 0.05 uM after 48 hrs by Annexin V-APC/7-AAD staining based flow cytometry (reference value: 1.99%). Type of series: functional.
Series [13] addresses T1, Mitogen-activated protein kinase; ERK1/ERK2 (Homo sapiens). As to the kind of experiment: Induction of ERK1/2 phosphorylation in human K562/ADR cells at 0.05 uM after 48 hrs by Western blot analysis relative to control. Type of series: cell-based.
The target is the same in series [14]. As to the kind of experiment: Activation of ERK1/2 signalling in human K562/ADR cells assessed as suppression of CDK1 protein expression at 0.05 uM after 48 hrs by Western blot analysis relative to control. Type of series: cell-based.
Series [15] shares this target. As to the kind of experiment: Activation of ERK1/2 signalling in human K562/ADR cells assessed as increase in cleaved caspase-3 expression at 0.05 uM after 48 hrs by Western blot analysis relative to control. The class given is cell-based.
Series [16] has as its system K562/Adr. As to the kind of experiment: Induction of apoptosis in human K562/ADR cells assessed as necrotic cells at 0.05 uM after 48 hrs by Annexin V-APC/7-AAD staining based flow cytometry (reference value: 2.47%). Type of series: functional.
The target of series [17] is T1, Mitogen-activated protein kinase; ERK1/ERK2 (Homo sapiens). As to the kind of experiment: Activation of ERK1/2 signalling in human K562/ADR cells assessed as increase in cleaved caspase-9 expression at 0.05 uM after 48 hrs by Western blot analysis relative to control. The class given is cell-based.
Series [18] has as its system K562/Adr. As to the kind of experiment: Induction of apoptosis in human K562/ADR cells assessed as live cells at 0.05 uM after 48 hrs by Annexin V-APC/7-AAD staining based flow cytometry (reference value: 91.65%). The class given is functional.

As a reminder, the IC50 is the concentration needed to halve the response being measured. Low readings indicate greater potency, high ones weaker potency. `COc1cccc2c1C(=O)c1c(O)c3c(c(O)c1C2=O)C[C@@](O)(C(=O)CO)C[C@@H]3O[C@H]1C[C@H](N)[C@H](O)[C@H](C)O1` [DOXORUBICIN HYDROCHLORIDE]: the half-inhibitory concentration (IC50) in the series on K562 [1] came out at 220 nM; in the series on K562/Adr [2] it was 18800 nM.
As to `COc1ccc(C(=O)O[C@H]2c3cc4c(cc3[C@@H](c3cc(OC)c(OC)c(OC)c3)[C@H]3C(=O)OC[C@@H]32)OCO4)cn1`, the “Ratio IC50” value with K562 [3] turned out to be 2.12. Moreover, the IC50 amounted to 58 nM in the series on K562 [1] and 123 nM in the series with K562/Adr [2].
For `COc1cc([C@@H]2c3cc4c(cc3[C@H](OC(=O)c3cccnc3OC)[C@H]3COC(=O)[C@H]23)OCO4)cc(OC)c1OC`, the “Ratio IC50” value with K562 [3] is recorded as 3.085. Further, the figures for the IC50 in the series with K562 [1] and in the series with K562/Adr [2] were 47 nM and 145 nM, respectively.
On to `COc1cc([C@@H]2c3cc4c(cc3[C@H](O)[C@H]3COC(=O)[C@H]23)OCO4)cc(OC)c1OC` [PODOFILOX], for which the fold change (FC) came to 0.02 in [4]; 0.88 with K562/Adr [5]; 0.03 in series [7]; 0.7 in series [11]; 0.63 in series [13]; 0.4 in series [14]. The fold change (FC) in [15] is 0.76; in series [17] it was 0.74. For the same compound, the result in the series with K562/Adr [6], with K562/Adr [8] and in the series on K562/Adr [10] was Active. Besides, the “Ratio IC50” value in the series on K562 [3] was found to be 4.166. The Activity with K562/Adr [9] was determined as 43.5%; with K562/Adr [12], 7.94%; in the series on K562/Adr [16], 7.73%; in the series on K562/Adr [18] it was 40.83%. This compound also showed an IC50 in the series on K562/Adr [2] of 25 nM.
In the case of `COc1cc([C@@H]2c3cc4c(cc3[C@H](OC(=O)c3ccc(Br)nc3)[C@H]3COC(=O)[C@H]23)OCO4)cc(OC)c1OC`, the “Ratio IC50” value in the series with K562 [3] is listed as 1.347. Moreover, the figures for the 50% inhibitory concentration (IC50) in the series on K562 [1] and with K562/Adr [2] were 256 nM and 345 nM, respectively.
For `COc1cc([C@@H]2c3cc4c(cc3[C@H](OC(=O)c3cccnc3)[C@H]3COC(=O)[C@H]23)OCO4)cc(OC)c1OC` [4-O-PODOPHYLLOTOXINYL-NICOTINATE], in the series on K562 [3], the “Ratio IC50” value was 4.151. In addition, the IC50 with K562 [1] stood at 33 nM; in the series with K562/Adr [2], 137 nM.
`COc1cc([C@@H]2c3cc4c(cc3[C@H](OC(=O)c3ccnc(Br)c3)[C@H]3COC(=O)[C@H]23)OCO4)cc(OC)c1OC`: the “Ratio IC50” value in the series with K562 [3] was determined as 2.521. The IC50 was 23 nM with K562 [1] and 58 nM in the series with K562/Adr [2].
For the compound `COc1cc([C@@H]2c3cc4c(cc3[C@H](OC(=O)c3cc(Cl)ccn3)[C@H]3COC(=O)[C@H]23)OCO4)cc(OC)c1OC`, in the series with K562 [3], the “Ratio IC50” value was determined as 3.25. The IC50 stood at 16 nM with K562 [1] and 52 nM in the series with K562/Adr [2].
The like results for `COc1cc([C@@H]2c3cc4c(cc3[C@H](OC(=O)c3ccncc3)[C@H]3COC(=O)[C@H]23)OCO4)cc(OC)c1OC` [4-O-PODOPHYLLOTOXINYL-ISONICOTINATE] were, in that order, 4.363, 11 nM and 48 nM.
As to `COc1cc([C@@H]2c3cc4c(cc3[C@H](OC(=O)c3ccc(Br)cn3)[C@H]3COC(=O)[C@H]23)OCO4)cc(OC)c1OC`, the “Ratio IC50” value in the series on K562 [3] amounted to 8.421. Besides, the IC50 was found to be 19 nM in the series on K562 [1] and 160 nM in the series with K562/Adr [2].
Consider `COc1cc([C@@H]2c3cc4c(cc3[C@H](OC(=O)c3ccnc(Cl)c3)[C@H]3COC(=O)[C@H]23)OCO4)cc(OC)c1OC`, for which the “Ratio IC50” value with K562 [3] came out at 2.85. In addition, the IC50 was 20 nM in the series on K562 [1] and 57 nM with K562/Adr [2].
